Data as given in PMC5148701 (Journal of medicinal chemistry, 2016).
pEC50, pIC50, pKi: −log10 of the molar value. Values joined by “and” are separate entries in the source; they are usually repeats but may differ in a detail not shown here. Equal entries are not always repeated. “Also recorded” adds a separate entry of the source. Where two headings read alike, the source gives them in different places.

How the values were obtained:
5-HT2B = 5-HT2B (Homo sapiens, UniProt P41595); experiment: Radioligand binding, 5-HT2B
D2R = D2R (Homo sapiens, UniProt P14416); experiment: Radioligand binding, D2R
hD2L receptors = hD2L receptors (Homo sapiens, UniProt P14416); experiment: D2R Gi/o-mediated cAMP inhibition assay; type: cell-based; conditions: for Emax: HEK-293T; for cAMP Emax (%): HEK293T cells, GloSensor-22F
human D2Rlong [1] = biological target: T1, human D2Rlong (Homo sapiens, UniProt P14416); experiment: DiscoverX PathHunter D2R β-arrestin-2 recruitment assay; type: cell-based; conditions: D2R-expressing CHO cells; up to 10 µM; n=1, performed in duplicate
5-HT1A = biological target: T2, 5-HT1A (Homo sapiens, UniProt P08908); experiment: Radioligand binding, 5-HT1A
T2 sequence (P08908 1-422): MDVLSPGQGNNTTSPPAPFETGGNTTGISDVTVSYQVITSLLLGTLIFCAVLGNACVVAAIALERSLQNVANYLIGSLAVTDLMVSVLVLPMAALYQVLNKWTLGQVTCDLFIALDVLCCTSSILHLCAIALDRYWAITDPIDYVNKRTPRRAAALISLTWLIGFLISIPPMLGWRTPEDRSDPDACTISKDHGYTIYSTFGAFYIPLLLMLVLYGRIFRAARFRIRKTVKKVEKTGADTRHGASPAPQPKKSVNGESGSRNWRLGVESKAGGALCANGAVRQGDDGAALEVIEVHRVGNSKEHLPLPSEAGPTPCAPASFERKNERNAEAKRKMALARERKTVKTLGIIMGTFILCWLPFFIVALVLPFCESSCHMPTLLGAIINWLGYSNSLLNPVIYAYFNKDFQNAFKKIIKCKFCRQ

5-HT1B = 5-HT1B (Homo sapiens, UniProt P28222); experiment: Radioligand binding, 5-HT1B
mouse D2Long = mouse D2Long (Mus musculus, UniProt P61168); experiment: BRET β-arrestin-2 recruitment assay with GRK2 co-expression; type: cell-based; conditions: for β-arrestin-2 recruitment agonist activity in BRET assay: up to 1 µM, GRK2 co-expressed
D3R = D3R (Homo sapiens, UniProt P35462); experiment: Radioligand binding, D3R
5-HT7 = 5-HT7 (Homo sapiens, UniProt P34969); experiment: Radioligand binding, 5-HT7
D2L receptors = D2L receptors (Homo sapiens, UniProt P14416); experiment: D2R β-arrestin-2 recruitment Tango assay; type: cell-based; conditions: for Emax: HTLA, read-out: β-arrestin Emax (%); for EC50: β-arrestin EC50 (nM)
5-HT1D = 5-HT1D (Homo sapiens, UniProt P28221); experiment: Radioligand binding, 5-HT1D
5-HT2A = 5-HT2A (Homo sapiens, UniProt P28223); experiment: Radioligand binding, 5-HT2A
D4R = biological target: T3, D4R (Homo sapiens, UniProt P21917); experiment: Radioligand binding, D4R
T3 sequence (P21917 1-419): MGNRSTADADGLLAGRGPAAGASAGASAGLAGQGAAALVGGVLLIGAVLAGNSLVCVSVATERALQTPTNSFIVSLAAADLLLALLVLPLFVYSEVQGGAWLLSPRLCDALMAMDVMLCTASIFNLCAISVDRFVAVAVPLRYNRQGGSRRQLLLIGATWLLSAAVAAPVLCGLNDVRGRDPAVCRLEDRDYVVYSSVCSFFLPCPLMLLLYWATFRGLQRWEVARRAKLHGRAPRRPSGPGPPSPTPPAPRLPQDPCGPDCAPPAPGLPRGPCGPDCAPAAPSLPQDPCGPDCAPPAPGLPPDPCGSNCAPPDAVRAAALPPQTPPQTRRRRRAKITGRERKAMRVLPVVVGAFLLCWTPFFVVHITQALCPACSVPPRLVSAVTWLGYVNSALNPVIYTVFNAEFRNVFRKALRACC

human D2Rlong [2] = biological target: T1, human D2Rlong; experiment: cell-based; conditions: for Gαi1-Gγ2 dissociation BRET partial agonist activity relative to quinpirole: HEK293T cells
D5R = D5R (Homo sapiens, UniProt P21918); experiment: Radioligand binding, D5R
D1R = D1R (Homo sapiens, UniProt P21728); experiment: Radioligand binding, D1R
5-HT3 = biological target: T4, 5-HT3 (Homo sapiens, UniProt P46098); experiment: Radioligand binding, 5-HT3
T4 sequence (P46098 24-478): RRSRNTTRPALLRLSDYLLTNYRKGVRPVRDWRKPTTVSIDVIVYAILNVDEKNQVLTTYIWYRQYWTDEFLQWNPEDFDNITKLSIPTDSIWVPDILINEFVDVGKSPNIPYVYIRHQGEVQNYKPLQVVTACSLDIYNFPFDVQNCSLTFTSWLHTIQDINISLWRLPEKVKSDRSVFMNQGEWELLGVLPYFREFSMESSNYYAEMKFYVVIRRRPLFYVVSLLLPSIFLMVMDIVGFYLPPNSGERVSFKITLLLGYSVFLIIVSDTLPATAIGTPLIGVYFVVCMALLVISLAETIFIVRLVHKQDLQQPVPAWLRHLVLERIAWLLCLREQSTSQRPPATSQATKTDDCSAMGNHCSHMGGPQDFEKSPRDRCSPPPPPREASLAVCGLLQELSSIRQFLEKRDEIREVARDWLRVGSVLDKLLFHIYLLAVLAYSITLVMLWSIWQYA

5-HT5A = 5-HT5A (Homo sapiens, UniProt P47898); experiment: Radioligand binding, 5-HT5A
5-HT2C = biological target: T5, 5-HT2C (Homo sapiens, UniProt P28335); experiment: Radioligand binding, 5-HT2C
T5 sequence (P28335 33-458): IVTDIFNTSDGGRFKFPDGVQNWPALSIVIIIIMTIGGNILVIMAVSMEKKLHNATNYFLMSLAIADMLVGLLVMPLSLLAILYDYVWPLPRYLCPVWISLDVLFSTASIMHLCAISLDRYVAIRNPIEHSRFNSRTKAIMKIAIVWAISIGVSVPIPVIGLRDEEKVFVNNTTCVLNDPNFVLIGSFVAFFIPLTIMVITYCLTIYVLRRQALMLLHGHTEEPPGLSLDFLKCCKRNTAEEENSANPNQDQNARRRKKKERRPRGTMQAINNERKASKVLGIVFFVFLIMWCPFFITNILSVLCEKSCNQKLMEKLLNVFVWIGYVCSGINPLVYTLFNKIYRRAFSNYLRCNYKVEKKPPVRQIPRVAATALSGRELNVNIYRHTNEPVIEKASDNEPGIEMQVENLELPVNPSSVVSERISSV

H2-histamine receptor = H2-histamine receptor (Homo sapiens, UniProt P25021); experiment: Radioligand binding, H2
5-HT6 = 5-HT6 (Homo sapiens, UniProt P50406); experiment: Radioligand binding, 5-HT6
[3] = Binding affinity Ki (nM), 5-HT2B
[4] = read-out: cAMP Emax (%), HEK293T cells, GloSensor-22F, normalized to maximum cAMP inhibition by quinpirole (100%)
[5] = Binding affinity Ki (nM), 5-HT1A
[6] = normalized to maximum cAMP inhibition by quinpirole (100%)

Sequence of 5-HT2A (P28223 whole entry, species assumed): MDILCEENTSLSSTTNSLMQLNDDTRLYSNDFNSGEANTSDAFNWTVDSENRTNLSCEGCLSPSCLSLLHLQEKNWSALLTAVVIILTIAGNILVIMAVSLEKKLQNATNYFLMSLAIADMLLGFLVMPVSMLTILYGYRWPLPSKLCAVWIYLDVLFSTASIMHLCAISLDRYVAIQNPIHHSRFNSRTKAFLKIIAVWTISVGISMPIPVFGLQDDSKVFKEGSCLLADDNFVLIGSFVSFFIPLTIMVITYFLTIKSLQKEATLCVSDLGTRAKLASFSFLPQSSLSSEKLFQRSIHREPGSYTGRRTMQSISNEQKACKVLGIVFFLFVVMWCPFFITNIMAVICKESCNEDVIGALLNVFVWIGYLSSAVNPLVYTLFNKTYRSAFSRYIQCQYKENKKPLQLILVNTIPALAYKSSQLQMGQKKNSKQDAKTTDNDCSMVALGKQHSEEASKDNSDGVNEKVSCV
Sequence of D3R (P35462 whole entry): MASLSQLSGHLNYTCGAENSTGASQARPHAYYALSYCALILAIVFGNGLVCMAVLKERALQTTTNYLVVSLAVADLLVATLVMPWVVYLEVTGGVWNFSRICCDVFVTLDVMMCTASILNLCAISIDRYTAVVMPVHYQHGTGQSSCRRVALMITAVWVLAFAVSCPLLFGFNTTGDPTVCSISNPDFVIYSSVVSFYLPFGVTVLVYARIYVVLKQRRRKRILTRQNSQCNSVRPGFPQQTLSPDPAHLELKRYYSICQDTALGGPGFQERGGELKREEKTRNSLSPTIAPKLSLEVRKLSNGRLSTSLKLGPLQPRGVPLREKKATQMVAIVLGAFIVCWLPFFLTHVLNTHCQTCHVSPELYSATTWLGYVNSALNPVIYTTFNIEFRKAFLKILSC
Sequence of mouse D2Long (P61168 whole entry): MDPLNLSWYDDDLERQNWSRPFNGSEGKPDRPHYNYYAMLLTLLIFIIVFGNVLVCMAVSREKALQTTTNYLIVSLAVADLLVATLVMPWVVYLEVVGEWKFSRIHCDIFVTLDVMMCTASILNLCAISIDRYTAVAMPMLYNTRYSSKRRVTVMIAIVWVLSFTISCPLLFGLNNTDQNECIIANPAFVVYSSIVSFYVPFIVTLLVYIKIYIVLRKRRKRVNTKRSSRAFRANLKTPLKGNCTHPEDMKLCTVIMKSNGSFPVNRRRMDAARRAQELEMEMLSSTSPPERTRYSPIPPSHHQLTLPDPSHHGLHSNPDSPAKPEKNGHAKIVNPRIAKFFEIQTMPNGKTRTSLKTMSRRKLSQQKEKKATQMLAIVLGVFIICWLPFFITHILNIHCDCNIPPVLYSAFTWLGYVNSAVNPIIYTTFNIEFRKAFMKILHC
Sequence of D5R (P21918 whole entry): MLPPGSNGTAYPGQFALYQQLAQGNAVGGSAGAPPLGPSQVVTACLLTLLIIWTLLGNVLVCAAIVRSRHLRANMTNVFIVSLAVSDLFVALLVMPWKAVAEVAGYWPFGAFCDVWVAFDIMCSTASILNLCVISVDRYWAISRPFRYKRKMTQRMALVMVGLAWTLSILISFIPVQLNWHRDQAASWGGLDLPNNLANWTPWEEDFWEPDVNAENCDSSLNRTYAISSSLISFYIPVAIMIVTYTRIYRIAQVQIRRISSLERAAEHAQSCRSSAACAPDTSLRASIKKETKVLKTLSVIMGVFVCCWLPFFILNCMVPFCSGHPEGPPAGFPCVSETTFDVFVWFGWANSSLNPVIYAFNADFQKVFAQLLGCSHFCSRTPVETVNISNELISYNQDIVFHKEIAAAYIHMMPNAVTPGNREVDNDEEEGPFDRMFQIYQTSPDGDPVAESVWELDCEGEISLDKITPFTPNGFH
Sequence of 5-HT7 (P34969 whole entry, species assumed): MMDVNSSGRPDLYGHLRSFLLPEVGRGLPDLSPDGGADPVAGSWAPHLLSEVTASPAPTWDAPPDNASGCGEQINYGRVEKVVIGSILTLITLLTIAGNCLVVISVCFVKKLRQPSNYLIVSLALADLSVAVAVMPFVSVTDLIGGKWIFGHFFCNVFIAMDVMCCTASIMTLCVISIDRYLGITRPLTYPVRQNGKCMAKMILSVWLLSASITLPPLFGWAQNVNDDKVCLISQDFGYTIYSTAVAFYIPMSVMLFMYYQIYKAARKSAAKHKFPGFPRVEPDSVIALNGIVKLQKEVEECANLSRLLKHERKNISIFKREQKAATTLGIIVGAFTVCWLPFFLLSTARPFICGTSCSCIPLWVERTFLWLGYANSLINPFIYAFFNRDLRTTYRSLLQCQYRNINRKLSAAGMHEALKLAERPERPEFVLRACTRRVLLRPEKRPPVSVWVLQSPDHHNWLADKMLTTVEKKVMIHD
Sequence of D1R (P21728 whole entry): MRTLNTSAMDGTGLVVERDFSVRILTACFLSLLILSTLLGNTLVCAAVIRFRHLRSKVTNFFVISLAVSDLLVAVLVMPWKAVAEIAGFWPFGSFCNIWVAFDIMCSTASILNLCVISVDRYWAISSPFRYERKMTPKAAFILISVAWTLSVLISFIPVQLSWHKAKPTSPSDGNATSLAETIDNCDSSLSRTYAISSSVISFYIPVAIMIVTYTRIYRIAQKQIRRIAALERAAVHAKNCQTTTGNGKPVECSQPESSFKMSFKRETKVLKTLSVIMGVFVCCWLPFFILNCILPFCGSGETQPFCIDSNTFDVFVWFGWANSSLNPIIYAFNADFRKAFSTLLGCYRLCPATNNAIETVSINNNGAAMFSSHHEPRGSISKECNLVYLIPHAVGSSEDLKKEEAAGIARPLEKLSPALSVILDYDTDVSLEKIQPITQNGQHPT
Sequence of 5-HT1D (P28221 whole entry, species assumed): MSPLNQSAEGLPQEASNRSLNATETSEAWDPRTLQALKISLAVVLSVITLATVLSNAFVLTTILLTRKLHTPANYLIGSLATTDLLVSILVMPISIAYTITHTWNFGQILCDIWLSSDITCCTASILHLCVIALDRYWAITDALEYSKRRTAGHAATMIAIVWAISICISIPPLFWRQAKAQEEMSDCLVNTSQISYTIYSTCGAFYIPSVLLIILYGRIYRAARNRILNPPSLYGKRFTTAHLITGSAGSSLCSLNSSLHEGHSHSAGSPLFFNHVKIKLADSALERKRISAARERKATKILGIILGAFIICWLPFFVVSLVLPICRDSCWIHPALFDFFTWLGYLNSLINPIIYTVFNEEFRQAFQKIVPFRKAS
T1 sequence (P14416 whole entry): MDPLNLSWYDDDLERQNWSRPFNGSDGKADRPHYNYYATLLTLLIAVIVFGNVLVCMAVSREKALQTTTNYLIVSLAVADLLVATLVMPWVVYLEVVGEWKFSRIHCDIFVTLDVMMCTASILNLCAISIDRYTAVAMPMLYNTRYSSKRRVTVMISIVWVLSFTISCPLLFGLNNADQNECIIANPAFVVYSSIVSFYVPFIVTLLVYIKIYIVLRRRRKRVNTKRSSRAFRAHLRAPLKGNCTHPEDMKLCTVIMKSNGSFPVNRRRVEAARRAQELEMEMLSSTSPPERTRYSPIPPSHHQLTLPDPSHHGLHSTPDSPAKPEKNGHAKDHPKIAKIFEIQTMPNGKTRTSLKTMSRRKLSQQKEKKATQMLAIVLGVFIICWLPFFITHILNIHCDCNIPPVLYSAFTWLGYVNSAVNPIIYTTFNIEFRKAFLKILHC
Sequence of D2R (P14416 whole entry): as above
Sequence of D2L receptors (P14416 whole entry): as above
Sequence of hD2L receptors (P14416 whole entry): as above
Sequence of 5-HT1B (P28222 whole entry, species assumed): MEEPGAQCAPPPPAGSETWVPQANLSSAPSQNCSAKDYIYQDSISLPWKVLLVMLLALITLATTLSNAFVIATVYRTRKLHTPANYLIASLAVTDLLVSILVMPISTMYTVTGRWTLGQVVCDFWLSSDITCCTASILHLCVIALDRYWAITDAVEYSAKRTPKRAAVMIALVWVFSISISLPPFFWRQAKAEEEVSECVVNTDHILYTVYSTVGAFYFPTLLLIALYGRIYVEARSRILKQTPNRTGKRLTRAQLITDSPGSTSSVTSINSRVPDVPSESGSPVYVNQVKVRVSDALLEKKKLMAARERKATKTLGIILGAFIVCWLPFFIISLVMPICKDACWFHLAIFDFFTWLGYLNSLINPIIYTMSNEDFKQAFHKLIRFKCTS
Sequence of 5-HT2B (P41595 whole entry, species assumed): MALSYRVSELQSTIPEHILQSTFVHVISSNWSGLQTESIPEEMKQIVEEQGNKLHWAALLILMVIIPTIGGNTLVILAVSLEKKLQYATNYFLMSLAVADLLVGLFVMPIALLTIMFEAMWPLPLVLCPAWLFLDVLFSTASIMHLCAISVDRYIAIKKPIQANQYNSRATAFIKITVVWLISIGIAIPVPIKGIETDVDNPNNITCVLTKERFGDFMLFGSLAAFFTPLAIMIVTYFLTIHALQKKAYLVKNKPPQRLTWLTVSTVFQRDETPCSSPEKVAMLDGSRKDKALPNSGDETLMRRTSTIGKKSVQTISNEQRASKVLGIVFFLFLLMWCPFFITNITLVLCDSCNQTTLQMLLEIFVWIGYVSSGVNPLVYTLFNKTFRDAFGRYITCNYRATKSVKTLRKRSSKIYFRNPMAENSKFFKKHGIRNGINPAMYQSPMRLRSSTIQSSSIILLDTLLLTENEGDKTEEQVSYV
Sequence of 5-HT5A (P47898 whole entry, species assumed): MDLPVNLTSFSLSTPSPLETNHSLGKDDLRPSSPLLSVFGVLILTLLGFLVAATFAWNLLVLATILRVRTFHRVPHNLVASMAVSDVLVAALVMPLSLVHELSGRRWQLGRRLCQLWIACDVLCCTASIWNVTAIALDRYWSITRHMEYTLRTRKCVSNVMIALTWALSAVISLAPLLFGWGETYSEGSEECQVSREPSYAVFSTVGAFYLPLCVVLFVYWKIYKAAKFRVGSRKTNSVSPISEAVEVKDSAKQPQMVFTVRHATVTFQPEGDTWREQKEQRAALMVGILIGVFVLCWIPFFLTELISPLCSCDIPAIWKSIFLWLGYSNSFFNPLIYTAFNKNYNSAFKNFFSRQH

SMILES	Ki (5-HT2B; [3]) [nM]	pKi (D2R)	Emax (hD2L receptors; [4]) [%]	β-arrestin recruitment activity as measured by DiscoverX (human D2Rlong [1])	Ki (5-HT1A; [5]) [nM]	pKi (5-HT1B)	β-arrestin-2 recruitment agonist activity in BRET assay (mouse D2Long)	pKi (D3R)	pKi (5-HT7)	Emax (D2L receptors) [%]	pKi (5-HT1D)	pKi (5-HT2A)	pKi (D4R)	cAMP Emax (%) (hD2L receptors; [6])	pKi (D1R)	pKi (D5R)	further results
Cc1nc2cc(OCCCCN3CCN(c4cccc(Cl)c4Cl)CC3)ccc2s1 [Compound 1, 5-(4-(4-(2,3-Dichlorophenyl)piperazin-1-yl)butoxy)-2-methylbenzo[d]thiazole]	38	6.82	50	lack of β-arrestin-2 recruitment activity; also recorded: no activity	86	5.77	no activity	7.89	6.85	23	6.49	6.92	7.09				inhibition of dopamine-stimulated D2R G protein activation as measured by cAMP inhibition (hD2L receptors; antagonist mode, Figure S2): partial inhibition; pIC50 (mouse D2Long): 7.74; antagonist activity on dopamine-stimulated β-arrestin-2 recruitment (BRET) (mouse D2Long; antagonist mode): full antagonist activity; EC50 (D2L receptors; Tango assay, HTLA cells): 13 nM; pEC50 (human D2Rlong [2]): 8.44; Gαi1-Gγ2 dissociation BRET partial agonist activity relative to quinpirole (human D2Rlong [2]): 57%
CNc1nc2cc(OCCCCN3CCN(c4cccc(Cl)c4Cl)CC3)ccc2s1 [Compound 24, 5-(4-(4-(2,3-Dichlorophenyl)piperazin-1-yl)butoxy)-N methylbenzo[d]thiazol-2-amine]							not active; also recorded: no β-arrestin recruitment							40			Ki (5-HT2B; read-out: Binding affinity Ki (nM), 5-HT2B): 12 nM; Ki (D5R; read-out: Binding affinity Ki (nM), D5R, radioligand binding): 1500 nM; Ki (D2R; read-out: Binding affinity Ki (nM), D2R, radioligand binding): 60 nM; Ki (5-HT1A; read-out: Binding affinity Ki (nM), 5-HT1A): 55 nM; Ki (D1R; read-out: Binding affinity Ki (nM), D1R, radioligand binding): 1100 nM; Ki (5-HT1B; read-out: Binding affinity Ki (nM), 5-HT1B, radioligand binding): 1400 nM; Ki (D3R; read-out: Binding affinity Ki (nM), D3R, radioligand binding): 35 nM; Ki (5-HT7; read-out: Binding affinity Ki (nM), 5-HT7, radioligand binding): 100 nM; β-arrestin Emax (%) (D2L receptors; Tango assay, HTLA cells, normalized to quinpirole (100%)): <20%; Ki (5-HT1D; read-out: Binding affinity Ki (nM), 5-HT1D, radioligand binding): 390 nM; Ki (5-HT2A; read-out: Binding affinity Ki (nM), 5-HT2A, radioligand binding): 72 nM; Ki (D4R; read-out: Binding affinity Ki (nM), D4R, radioligand binding): 280 nM
CCc1nc2cc(OCCCCN3CCC(c4cccc(Cl)c4Cl)CC3)ccc2s1 [Compound 46, 5-(4-(4-(2,3-Dichlorophenyl)piperidin-1-yl)butoxy)-2-ethylbenzo[d]thiazole]	71	6.77	40 to 50		100		not active; also recorded: no β-arrestin recruitment	7.00		< 20	6.09	6.85	5.74	43	5.77		pKi (5-HT3): 5.82; pKi (5-HT5A): 5.80
Cc1ccc2cccc(N3CCN(CCCCOc4ccc5sc(C(C)C)nc5c4)CC3)c2n1 [Compound 49, 2-Isopropyl-5-(4-(4-(2-methylquinolin-8-yl)piperazin-1-yl)butoxy)benzo[d]thiazole]		7.35	30 to 40		14	5.80	not active; also recorded: no β-arrestin recruitment	7.19	7.16	< 20	7.03	6.96	5.15	32	5.70	5.82	pKi (5-HT2C): 6.85; pKi (H2-histamine receptor): 6.37; pKi (5-HT5A): 5.85
CC(C)c1nc2cc(OCCCCN3CCN(c4cccc5c4OCCO5)CC3)ccc2s1 [Compound 53, 5-(4-(4-(2,3-Dihydrobenzo[b][1,4]dioxin-5-yl)piperazin-1-yl)butoxy)-2-isopropylbenzo[d]thiazole]		7.52	30 to 40	lack of β-arrestin-2 recruitment activity; also recorded: no activity	1.4	6.38	not active; also recorded: no β-arrestin recruitment	7.51	7.51	< 20	7.00	7.54	7.11		5.70	5.96	pKi (5-HT3): 5.59; pEC50 (human D2Rlong [2]): 8.34; Gαi1-Gγ2 dissociation BRET partial agonist activity relative to quinpirole (human D2Rlong [2]): 47%
CNc1nc2cc(OCCCCN3CCC(c4cccc(Cl)c4Cl)CC3)ccc2s1 [Compound 54, 5-(4-(4-(2,3-Dichlorophenyl)piperidin-1-yl)butoxy)-N-methylbenzo[d]thiazol-2-amine]	< 20	7.00	40 to 50		66	5.59	not active; also recorded: no β-arrestin recruitment	7.16			6.39	7.15	6.37		5.96	5.74	pKi (5-HT6): 6.39
Oc1c(CN2CCN(c3ccccn3)CC2)cc(Cl)c2cccnc12 [Compound 59, 5-Chloro-7-((4-(pyridin-2-yl)piperazin-1-yl)methyl)quinolin-8-ol, reference compound]				lack of β-arrestin-2 recruitment activity; also recorded: no activity						67							Emax (hD2L receptors; read-out: cAMP Emax (%)): 63%; Emax (mouse D2Long; HEK-293T, read-out: β-arrestin-2 recruitment BRET Emax (% of quinpirole)): 68%; EC50 (D2L receptors; Tango assay, HTLA cells): 102 nM and 46 nM
